Values joined by “and” are separate entries in the source; they are usually repeats but may differ in a detail not shown here. Equal values may be shown once. Read-outs that look alike come from different tables or passages of the source.
Experiments:
[1] = tested on: promastigotes of L. amazonensis; test: Growth inhibition of promastigote forms of L. amazonensis (MTT); assay type: cell-based, Leishmania amazonensis; settings: 72 h, 26 °C
Method: (§1) The in vitro tests utilized Leishmania amazonensis parasites (IFLA/BR/67/PH8). These leishmania cell lines were obtained from Oswaldo Cruz Foundation (FIOCRUZ)/Brazil. The promastigote forms were cultivated in Schneider’s insect medium at 26 °C in a biological oxygen demand (BOD) incubator. Schneider’s insect medium was supplemented with 20% fetal bovine serum (FBS) and 1% penicillin (100 U/mL) and streptomycin (µg/mL) (complete Schneider). Next, we differentiated them from promastigote forms by changing the conditions to Schneider’s insect medium supplemented with 5% FBS, pH 4.6, and a temperature of 32 °C to obtain axenic amastigote forms of L. amazonensis. Meanwhile, RAW 264.7 macrophages were cultured in […] cell culture flasks using DMEM medium supplemented with 10% FBS, 1% penicillin 100 U/mL, and 100 μg/mL streptomycin (complete DMEM) and incubated at 37 °C and 5% CO2.
(§2) Parasite growth inhibition was evaluated using the methodology described by Rodrigues et al. (2015). Cultures of logarithmically growing promastigote and axenic amastigote forms (1 × 10^6 parasites/mL) were incubated in 96-well plates containing 100 µL of supplemented Schneider’s medium in triplicate. Serial concentrations of 2-amino-thiophene and 2-amino-selenophene derivatives (10.00–0.156 μM) and the reference drugs meglumine antimoniate (500–40,000 μg/mL), amphoterecinB (0.1–2 μM), and pentamidine (3.12–100 µM) were added. BNP was used as a negative control. The cultures were incubated in a biological oxygen demand oven (model Eletrolab EL202, São Paulo, Brazil) at 26 °C for promastigotes and 32 °C for axenic amastigotes for 72 h. Then, 10 μL of MTT (5 mg/mL) was added to each well to colorimetrically evaluate growth inhibition. The plate was subsequently incubated for a further 4 h, followed by adding 50 μL of 10% sodium dodecyl sulfate solution for […] before the optical density of the culture was read on a microplate spectrophotometer reader. The reading was taken at the test and reference wavelengths of 540 and 620 nm using a microplate spectrophotometer. The negative control consisted of 0.2% […] with BNP, considered to be 100% viable.

[2] = tested on: axenic amastigotes of L. amazonensis; test: Growth inhibition of axenic amastigote forms of L. amazonensis (MTT); assay type: cell-based, Leishmania amazonensis; settings: 72 h, 32 °C
Method: as §1, §2

[3] = tested on: axenic amastigotes of L. amazonensis; settings: cited from earlier work; for EC50: read-out: EC50 against amastigotes
[4] = tested on: promastigotes of L. amazonensis; settings: cited from earlier work
RAW 264.7 macrophages = settings: previously published; cited from earlier work
[5] = Cytotoxicity in macrophages (MTT); assay type: cell-based; settings: mouse, RAW 264.7 macrophages
Method: as §1
First, 100 μL DMEM medium complete with 1 × 10^6 macrophages (RAW 264.7) was added to each well of a 96-well plate. RAW 264.7 macrophages were obtain from ATCC: code TIB-71^TM. The plate was placed in an incubator (37 °C, 5% CO2) (Sanyo, model COM-15A, Sanyo Electric Co., Osaka, Japan) for 4 h to promote cell adhesion. After this period, two washes were conducted with previously heated DMEM medium (37 °C) to remove non-adhered cells. 2-amino-thiophene and 2-amino-selenophene derivatives were added to wells at serial concentrations of 400 to 25 µM and then incubated for 48 h. Next, 10 μL of MTT at a […] of 5 mg/mL were added to each well and incubated for 4 h. The plate was then shaken for 30 min and read at the test and reference wavelengths of 550 and 620 nm, respectively, in a plate reader. DMEM medium supplemented with 0.5% DMSO was used as a negative control and considered as 100% macrophage viability. The selectivity index for each treatment was calculated as the ratio between the concentration of cytotoxicity of RAW 264.7 macrophages (CC50) and the 50% inhibitory concentration (IC50) or effective concentration (EC50), as measured for the different evolutionary forms of L. amazonensis.

[6] = L. amazonensis amastigotes, previously published, read-out: IC50 Amastigotes
[7] = L. amazonensis promastigotes, previously published, read-out: IC50 Promastigotes
[8] = L. amazonensis axenic amastigotes, previously published, read-out: IC50 Amastigotes
[9] = L. amazonensis axenic amastigotes, previously published
[10] = L. amazonensis promastigotes, previously published

Compound | IC50 ([1]; Leishmania amazonensis) [µM] | IC50 ([2]; Leishmania amazonensis) [µM] | IC50 [1] | IC50 [4, 7] | further results
CC(C)(C)C1CCc2c(sc(/N=C/c3c[nH]c4ccc(Br)cc34)c2C#N)C1 (stereo not drawn) [Compound 29] | > 10 | > 10 |  |  | 
Meglumine antimoniate [reference compound] |  |  | 70.3 µM and 58.9 µM and 67.9 µM |  | IC50 ([3]; L. amazonensis, read-out: IC50 against axenic amastigotes): 2.77 µM; IC50 ([4]; L. amazonensis, read-out: IC50 against promastigotes): 70.3 µM
NC(=O)c1c(N)sc2c1CCCC2 [Compound 7] | ≥ 10 | > 10 | > 10 µM |  | 
COc1ccc2[nH]cc(/C=N/c3[se]c4c(c3C#N)CCCC4)c2c1 [Compound 40] | > 10 |  |  |  | IC50 Promastigotes [1]: not active up to the highest concentration evaluated
N#Cc1c(/N=C/c2c[nH]c3ccccc23)sc2c1CCCCC2 [SB-44, reference compound] |  |  |  | 7.3 µM and 7.37 µM | IC50 [3, 6]: 15.8 µM; EC50 ([3]; L. amazonensis amastigotes): 15.8 µM
N#Cc1c(N)sc2c1CCCCCC2 [Compound 8CN] |  |  |  | 1.2 µM | CC50 (RAW 264.7 macrophages): 43.9 µM
N#Cc1c(/N=C/c2c[nH]c3ccc(Br)cc23)sc2c1CCCCC2 [SB-200] |  |  |  | 3.6 µM and 3.65 µM | IC50 [3, 6]: 20 µM and 20.1 µM; EC50 ([3]; L. amazonensis amastigotes): 20.1 µM; CC50 (RAW 264.7 macrophages): 32 µM
CCOC(=O)c1c(N)sc2c1CCC(C)C2 (stereo not drawn) [Compound 20] | ≥ 10 |  | > 10 µM |  | 
CCOC(=O)c1ccsc1N [Compound 3] | ≥ 10 | > 10 | > 10 µM |  | 
N#Cc1c(N)sc2c1CCCCC2 [Compound 7CN] |  |  |  | 3.2 µM and 3.14 µM | IC50 [3, 8]: 2.7 µM and 2.79 µM; CC50 (RAW 264.7 macrophages): 99.5 µM
NC(=O)c1c(N)sc2c1CCCCCC2 [Compound 8] | ≥ 10 | > 10 | > 10 µM |  | 
CCOC(=O)c1c(N)sc2c1CCCCC2 [Compound 11] | > 10 |  |  |  | 
CC(C)(C)OC(=O)N1CCc2c(sc(N)c2C#N)C1 [Compound 17, 2-Amino-6-N-Boc-Piperidine[b]Thiophene-3-Carbonitrile] | 8.61 | > 10 |  |  | 
CCCC1CCc2c(sc(N)c2C#N)C1 (stereo not drawn) [Compound 15] | < 10 | < 10 | 9.2 µM |  | IC50 [2]: 9.3 µM
N#Cc1c(/N=C/c2c[nH]c3ccc(Br)cc23)sc2c1CCC2 [Compound 25] |  |  |  | > 10 µM | IC50 Amastigotes [3, 9]: inactive against the two evolutionary forms; IC50 [3, 8]: > 10 µM; IC50 Promastigotes [4, 10]: inactive against the two evolutionary forms
N#Cc1c(/N=C/c2c[nH]c3cccc([N+](=O)[O-])c23)[se]c2c1CCCC2 [Compound 34] | < 3.5 |  | 2.14 µM |  | CC50 at 48 h [5]: 189 µM
NC(=O)c1ccsc1N [Compound 2] | ≥ 10 | > 10 | > 10 µM |  | 
N#Cc1c(/N=C/c2c[nH]c3ccc(Br)cc23)sc2c1CCNC2 [Compound 30] |  |  |  | > 10 µM | IC50 [3, 8]: > 10 µM
CC(C)(C)OC(=O)N1CCc2c(sc(/N=C/c3c[nH]c4ccc(Br)cc34)c2C#N)C1 [Compound 31] | > 10 | > 10 |  |  | 
N#Cc1c(/N=C/c2c[nH]c3ccc(Br)cc23)sc2c1CCCCCC2 [Compound 8CN83] |  |  |  | 4.7 µM and 4.75 µM | IC50 [3, 8]: 3.8 µM; CC50 (RAW 264.7 macrophages): > 100 µM
N#Cc1c(N)sc2c1CCNC2 [Compound 23] | > 10 | > 10 |  |  | 
Cc1cc(C#N)c(/N=C/c2c[nH]c3ccc(Br)cc23)s1 [Compound 24] | > 10 | > 10 |  |  | 
N#Cc1c(/N=C/c2c[nH]c3ccc(Br)cc23)sc2c1CCCCCCCCCC2 [Compound 26] |  |  |  | > 10 µM | IC50 Amastigotes [3, 9]: inactive against the two evolutionary forms; IC50 [3, 8]: > 10 µM; IC50 Promastigotes [4, 10]: inactive against the two evolutionary forms
N#Cc1c(N)sc2c1CCCC2 [Compound 5] |  |  |  | > 10 µM | 
